Like-named read-outs stand apart in the source and are kept apart here.
Target: T1, recombinant DGKα (Rattus norvegicus, UniProt P51556)
T1 construct: expressed in transfected cells; host or cells: HEK293T (SILAC HEK293T for LC-MS)
Assay: ADP-glo DAG phosphorylation substrate assay
Format: biochemical
Experimental: The ADP-Glo DAG phosphorylation substrate assay was adapted from Sato et al (Sato et al., 2013). Transfected HEK cells expressing recombinant FLAG-DGKA were harvested in DPBS and centrifuged at 1400×g for 3 min. Supernatant was removed and 1 mL Lysis Buffer (50 mM HEPES (pH 7.2), 150 mM NaCl, 5 mM MgCL2, 1 mM DTT, 1 mM phenylmethylsulfonyl […], Phosphatase Inhibitor Cocktail 2 (Sigma-Aldrich), and EDTA-Free Protease Inhibitor Mini Tablets (Pierce)) was added and cells re-suspended. Solutions were sonicated (3×1 sec pulse, 20% amplitude) and then centrifuged at 400×g for 5 min. Supernatant was separated and protein concentrations were measured using the Bio-Rad DC protein assay and diluted in Lysis Buffer as appropriate. Samples were stored at −80° C. until use.
Micelles were prepared from lipid stocks as follows: Reaction Buffer (50 mM MOPS (pH 7.4). 1 mM DTT. 100 mM NaCl. 20 mM NaF, and |μM CaCl2)) was prepared in ddH2O. […] 1,2-dioleoyl-sn-glycerol (DG) and 1.2-dioleoyl-sn-glycero-3-phospho-L-serine (DOPS) in chloroform were mixed and then dried under nitrogen. Triton Buffer was added to the dried lipids to a final concentration of 10 mM DG and 8 mM DOPS. This solution was incubated at room temperature for 5 min with gentle shaking, followed by sonication (3×1 sec pulse, 20% amplitude). The micelles were then diluted 4-fold in reaction buffer to yield the final micelle buffer. […] of lysate was aliquoted into each well of a 96 well plate, followed by micelle buffer to a final volume of 20 μL. 19 μL of this mix was added to 1 μL of DMSO or inhibitor solution and incubated at 30° C. for 30 min. After incubation, 5 μL of reaction initiator was added to each well and mixed thoroughly, followed by aliquoting 5 μL of each reaction mixture to a 96-well half area black polystyrene plate and incubated at 30° C. for 30 min. At this point the procedure for the ADP-GloTM assay (Promega) was performed. 5 μL of ‘ADP-Glo Reagent’ was added to each well, mixed thoroughly, and allowed to incubate at 25° C. for 40 min. Then 10 μL of the ‘Kinase Detection Reagent’ was added to each well, mixed thoroughly, and allowed to incubate at 25° C. for 40 min. Luminescence was measured with no filter and an integration time of 1 sec per well on a BMG Labtech CLARIOstar plate reader.
The percentage of enzyme activity remaining was determined by comparing integrated band intensities or luminescence of inhibitor—with DMSO-treated samples for gel-based chemical proteomic or ADP-glo assays, respectively. For both chemical proteomic and ADP-glo methods, nonlinear regression analysis was used to determine the IC50 values from a dose-response curve generated using GraphPad Prism. Data are shown as mean±s.e.m. Determination of significance was performed by one-way ANOVA. All statistical analyses were performed using GraphPad Prism.

[1] = DGKα-HEK293T proteome, read-out: IC50, DGKα inhibition, DAG phosphorylation substrate assay
[2] = read-out: 95% confidence intervals for IC50 values, substrate assay

T1 sequence (P51556 whole entry): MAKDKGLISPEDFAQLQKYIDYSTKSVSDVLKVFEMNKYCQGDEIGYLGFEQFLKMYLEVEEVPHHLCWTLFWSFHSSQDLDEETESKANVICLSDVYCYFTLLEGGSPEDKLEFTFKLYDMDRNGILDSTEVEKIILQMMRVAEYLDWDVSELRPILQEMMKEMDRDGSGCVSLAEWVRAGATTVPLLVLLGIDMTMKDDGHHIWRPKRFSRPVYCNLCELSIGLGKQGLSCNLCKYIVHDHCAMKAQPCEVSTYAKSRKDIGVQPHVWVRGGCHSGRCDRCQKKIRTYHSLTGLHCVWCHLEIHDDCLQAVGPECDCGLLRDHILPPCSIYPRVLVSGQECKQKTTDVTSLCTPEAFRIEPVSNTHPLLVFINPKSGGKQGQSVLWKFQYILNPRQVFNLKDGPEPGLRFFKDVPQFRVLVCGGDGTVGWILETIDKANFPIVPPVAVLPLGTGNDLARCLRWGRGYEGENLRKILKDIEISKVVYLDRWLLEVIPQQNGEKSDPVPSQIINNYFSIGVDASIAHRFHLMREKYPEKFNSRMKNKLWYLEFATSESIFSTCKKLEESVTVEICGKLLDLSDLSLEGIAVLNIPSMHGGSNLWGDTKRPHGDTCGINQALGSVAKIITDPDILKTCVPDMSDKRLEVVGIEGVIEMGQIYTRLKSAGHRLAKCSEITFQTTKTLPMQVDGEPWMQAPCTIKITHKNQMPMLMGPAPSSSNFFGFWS

activity against DGKα in the substrate assay (100 μM)	SMILES	IC50 [1] [µM]	IC50 [2] [µM]	blockade of recombinant DGKα activity (100 μM compound) [%]	blockade of DGKα activity (100 μM, from substrate- and chemical proteomic-assays) [%]
negligible activity	O=C(c1ccc(F)cc1)C1CCN(CCn2c(=O)[nH]c3ccccc3c2=O)CC1 [Ketanserin]				
	Fc1ccc(C(=C2CCNCC2)c2ccc(F)cc2)cc1 [RF001, 4-(Bis(4-fluorophenyl)methylene) piperidine]	223	120 to 414		
	Cc1nc2sccn2c(=O)c1CCN1CCC(=C(c2ccc(F)cc2)c2ccc(F)cc2)CC1 [Ritanserin]	25	20 to 30	~80	~70

Reference: US12643867B2, “Compositions and uses thereof” (University of Virginia Patent Foundation, priority 2017, dated 2026)
